One assay addresses human P2X3 receptor (Homo sapiens (Human), UniProt P56373). The assay can be described thus: Evaluation of human P2X3 receptor inhibitory activity (Fluo-3 calcium fluorescence, FDSS 3000, ATP stimulation).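 Further: stimulus was 50 nM ATP with fluorescence followed for 3 min, and the response per well was peak post-ATP fluorescence divided by the reading at measurement start.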 The note with it: C6BU-1 cells stably expressing human P2X3 receptor. The assay is classed as cell-based.
Chain of human P2X3 receptor (P56373 whole entry): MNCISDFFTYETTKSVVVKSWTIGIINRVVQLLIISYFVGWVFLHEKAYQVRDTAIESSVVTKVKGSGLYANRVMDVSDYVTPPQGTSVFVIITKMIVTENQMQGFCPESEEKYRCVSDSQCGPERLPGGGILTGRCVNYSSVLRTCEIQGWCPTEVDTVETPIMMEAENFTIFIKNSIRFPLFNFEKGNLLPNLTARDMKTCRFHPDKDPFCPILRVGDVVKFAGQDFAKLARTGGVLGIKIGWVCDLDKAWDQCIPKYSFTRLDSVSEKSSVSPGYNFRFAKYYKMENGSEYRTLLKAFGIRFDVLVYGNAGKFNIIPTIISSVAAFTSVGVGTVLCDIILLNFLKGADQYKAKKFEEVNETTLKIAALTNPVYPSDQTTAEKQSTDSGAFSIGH
For the molecule `CCn1c(=O)[nH]/c(=N\c2ccc(Oc3ccc(C(=O)O)cc3)cc2)n(Cc2ccc(Cl)cc2)c1=O` [Compound I-1969], the IC50 turned out to be 21 nM.
For the molecule `COC(=O)[C@@H](C)Cn1c(=O)[nH]/c(=N\c2ccc(OC(C)C)cc2)n(Cc2ccc(F)cc2)c1=O` [Compound I-0618], the IC50 came to 121 nM.
As for `COC(=O)[C@@H](C)Cn1c(=O)[nH]/c(=N\c2ccc(COC(C)C)cc2)n(Cc2ccc(Cl)cc2)c1=O` [Compound I-0656], the concentration for half-maximal inhibition (IC50) stood at 100 nM.
The same measure, in the same setting: then `COC(=O)[C@@H](C)Cn1c(=O)[nH]/c(=N\c2ccc3c(c2)COCO3)n(Cc2ccc(Cl)cc2)c1=O` [Compound I-0744], with 53 nM; and `O=C(O)CCn1c(=O)[nH]/c(=N\c2ccc(Oc3cncc(F)c3)cc2)n(Cc2ccc(Cl)cc2)c1=O` [Compound I-1412], with 11 nM.
On to `Cc1ccc(Cn2c(=O)n(C[C@H](C)C(=O)O)c(=O)[nH]/c2=N\c2ccc(Oc3cc(C)nc(C)c3)cc2)cc1` [Compound I-1260], for which the half-inhibitory concentration (IC50) turned out to be 31 nM.
As for `Cc1cc(/N=c2\[nH]c(=O)n(Cc3cccnc3OCCO)c(=O)n2Cc2ccc(Cl)cc2)ccc1OC(C)C` [Compound I-0715], the IC50 worked out at 13 nM.
Consider `CC(C)Oc1ccc(/N=c2\[nH]c(=O)n([C@@H]3C[C@H]3C(=O)OC(C)(C)C)c(=O)n2Cc2ccc(Cl)cc2)cc1F` [Compound I-0604], for which the IC50 amounted to 13 nM.
`CO[C@@H](Cn1c(=O)[nH]/c(=N\c2ccc(OC(C)C)c(C)c2)n(Cc2ccc(Cl)cc2)c1=O)C(=O)O` [Compound I-0807, (S)-1-(4-chlorobenzyl)-6-(3-mehyl-4-isopropoxyphenylimino)-3-(2-hydroxycarbonyl-2-methoxyethyl)-1,3,5-triazinane-2,4-dion]: the IC50 is 13 nM.
For the molecule `COC(=O)[C@H](C)[C@H](C)n1c(=O)[nH]/c(=N\c2ccc(OC3CCC3)cc2)n(Cc2ccc(C)cc2)c1=O` [Compound I-1379], the IC50 amounted to 10 nM.
On to `CCn1c(=O)[nH]/c(=N\c2ccc(Oc3cncc(CO)c3)cc2)n(Cc2ccc(Cl)cc2)c1=O` [Compound I-2075], for which the IC50 came to 21 nM.
Same read-out and setting: next, `CNC(=O)c1cc(Oc2ccc(/N=c3\[nH]c(=O)n(C)c(=O)n3Cc3ccc(C)cc3)cc2)ccn1` [Compound I-2012]: 9 nM.
Still for that read-out and setting: then `Cc1ccc(Cn2c(=O)n(CCC(=O)O)c(=O)[nH]/c2=N\c2cccc(Cl)c2)cc1` [Compound I-2047], with 384 nM; and `O=C(O)Cn1c(=O)[nH]/c(=N\c2ccc(OC3CCC3)cc2)n(Cc2ccc(Cl)cc2)c1=O` [Compound I-1943], with 258 nM.
Turning to `O=c1ccccn1-c1ccc(/N=c2\[nH]c(=O)n(CCOC3CCCCO3)c(=O)n2Cc2ccc(Cl)cc2)cc1` (stereo not drawn) [Compound I-2040], the IC50 was found to be 23 nM.
In the case of `CCOC(=O)CCn1c(=O)[nH]/c(=N\c2ccc(OC(C)C)c(COC(C)=O)c2)n(Cc2ccc(C)cc2)c1=O` [Compound I-1425], the IC50 came to 50 nM.
For the molecule `Cc1cc(/N=c2\[nH]c(=O)n(C[C@H](C)C(=O)O)c(=O)n2Cc2ccc(F)cc2)ccc1OC(C)C` [Compound I-0629], the IC50 was 127 nM.
As to `Cc1ccc(Oc2ccc(/N=c3\[nH]c(=O)n(CC(C)(C)C(=O)O)c(=O)n3Cc3ccc(Cl)cc3)cc2)cn1` [Compound I-1358], the concentration for half-maximal inhibition (IC50) is 9 nM.

The same assay, now with this note: C6BU-1 cells stably expressing human P2X3 receptor, Fluo-3 fluorescence, FDSS 3000.
Take `COC(=O)[C@@H](C)Cn1c(=O)[nH]/c(=N\c2ccc(C=C(C)C)c(F)c2)n(Cc2ccc(C)cc2)c1=O` [Compound I-1171]: the IC50 is 25 nM.
`O=c1[nH]/c(=N\c2ccc(Oc3ccc(O)nc3)cc2)n(Cc2ccc(Cl)cc2)c(=O)n1CCO` [Compound I-1789]: the IC50 came out at 30 nM.
Turning to `C[C@@H](C(=O)O)[C@H](C)n1c(=O)[nH]/c(=N\c2ccc3sccc3c2)n(Cc2ccc(Cl)cc2)c1=O` [Compound I-1590], the IC50 is 998 nM.
Consider `Cc1ccc(Cn2c(=O)n(CCC(=O)O)c(=O)[nH]/c2=N\c2ccc(OC(C)C)c(Br)c2)cc1` [Compound I-1178], for which the IC50 amounted to 17 nM.
Regarding `Cc1cc(/N=c2\[nH]c(=O)n(C[C@H](C)C(=O)O)c(=O)n2Cc2ccc(C(C)C)cc2)ccc1OC(C)C` [Compound I-1017], the IC50 amounted to 550 nM.
As to `Cc1ccc(Cn2c(=O)n(CC3(CC(=O)O)CC3)c(=O)[nH]/c2=N\c2ccc(OC(C)C)c(Cl)c2)cc1` [Compound I-0983], the IC50 is 7 nM.
For the molecule `COC(=O)Cn1c(=O)[nH]/c(=N\c2ccc(Oc3ccnc(C)c3)cc2)n(Cc2ccc(Cl)cc2)c1=O` [Compound I-1754], the IC50 amounted to 5 nM.
On to `Cc1ccc(Cn2c(=O)n(C[C@H](C)C(=O)O)c(=O)[nH]/c2=N\c2ccc(OCC3CC3)c(Cl)c2)cc1` [Compound I-0971], for which the IC50 turned out to be 30 nM.
As for `C/C=C/c1ccc(Cn2c(=O)n(C[C@H](C)C(=O)OC)c(=O)[nH]/c2=N\c2ccc(OC(C)C)cc2)cc1` [Compound I-1141], the IC50 is 911 nM.
The same measure, in the same setting: next, `CCN(c1ccc(/N=c2\[nH]c(=O)n(C[C@H](C)C(=O)O)c(=O)n2Cc2ccc(Cl)cc2)cc1)C(C)C` [Compound I-0963]: 662 nM; `COc1ccc(Oc2ccc(/N=c3\[nH]c(=O)n(CC(N)=O)c(=O)n3Cc3ccc(Cl)cc3)cc2)cn1` [Compound I-1856]: 8 nM.
Same read-out and setting: then `CCC[C@@H](C)Oc1ccc(/N=c2\[nH]c(=O)n(C[C@H](C)C(=O)O)c(=O)n2Cc2ccc(C)cc2)cc1` [Compound I-1061], with 174 nM; and `Cc1ccc(Cn2c(Nc3ccc(OC(C)C)cc3)nc(=O)n(C(C)C)c2=O)cc1[N+](=O)[O-]` [Compound I-0218], with 505 nM.
Turning to `CCc1oc2ccc(/N=c3\[nH]c(=O)n(CCCC(N)=O)c(=O)n3Cc3ccc(Cl)cc3)cc2c1C` [Compound I-1710], the IC50 came out at 6 nM.
On to `Cc1ccc(Cn2c(=O)n(C[C@H](C)C(=O)O)c(=O)[nH]/c2=N\c2ccc(C3CCCC3)cc2)cc1` [Compound I-1113], for which the IC50 was 123 nM.
`CC(C)Oc1ccc(/N=c2\[nH]c(=O)n(CC3(CC(=O)O)CC3)c(=O)n2Cc2ccc(Cl)cc2)cc1Cl` [Compound I-0981]: the IC50 came to 10 nM.
As for `Cc1cc(/N=c2\[nH]c(=O)n(C3CN(C(=O)OC(C)(C)C)C3)c(=O)n2Cc2ccc(Cl)cc2)ccc1OC(C)C` [Compound I-1641], the IC50 amounted to 20 nM.
The same measure, in the same setting: next, `C[C@@H](C(=O)O)[C@H](C)n1c(=O)[nH]/c(=N\c2ccc3nc(C(F)(F)F)[nH]c3c2)n(Cc2ccc(Cl)cc2)c1=O` [Compound I-1794]: 380 nM.
The same measure, in the same setting: next, `Cc1ccc(Cn2c(=O)n(CCC(=O)O)c(=O)[nH]/c2=N\c2ccc(OCC3CC3)c(Cl)c2)cc1` [Compound I-0968]: 107 nM.
With `CCOc1ccc(/N=c2\[nH]c(=O)n(C[C@H](O)CO)c(=O)n2Cc2ccc(Cl)cc2)cc1Cl` [Compound I-1907], the IC50 was 8 nM.

Still in this assay, the particulars now being: human P2X3 receptor, Test Example 1.
For the molecule `Cc1ccc(Cn2c(=O)n(CCC(=O)O)c(=O)[nH]/c2=N\c2ccc(Oc3cccc(C(N)=O)n3)cc2)cc1` [Compound I-2683], the IC50 is 12 nM.
As for `CCc1cc2cc(/N=c3\[nH]c(=O)n(C[C@H]4COC(C)(C)O4)c(=O)n3Cc3ccc(Cl)cc3)ccc2o1` [Compound I-2314], the IC50 was 7 nM.
Still for that read-out and setting: next, `CC[C@@H](C)n1c(=O)[nH]/c(=N\c2ccc(Oc3ccnc(C(=O)O)c3)cc2)n(Cc2ccc(Cl)cc2)c1=O` [Compound I-2482]: 11 nM.
As for `CCn1c(=O)[nH]/c(=N\c2ccc(Oc3ccc(NCC(N)=O)nc3)cc2)n(Cc2ccc(Cl)cc2)c1=O` [Compound I-2625], the IC50 came out at 3 nM.
In the case of `O=c1[nH]/c(=N\c2ccc(Oc3nccs3)cc2)n(Cc2ccc(Cl)cc2)c(=O)n1CC(O)CO` (stereo not drawn) [Compound I-2448], the IC50 amounted to 11 nM.
Same read-out and setting: then `CCn1c(=O)[nH]/c(=N\c2ccc(Oc3cncc(C(=O)O)n3)cc2)n(Cc2ccc(C)cc2)c1=O` [Compound I-2474], with 7 nM; and `O=c1[nH]/c(=N\c2ccc(Oc3ccon3)cc2)n(Cc2ccc(Cl)cc2)c(=O)n1CC(O)CO` (stereo not drawn) [Compound I-2370], with 11 nM.
`CC1(C)OC[C@H](Cn2c(=O)[nH]/c(=N\c3ccc(Oc4cncc(F)c4)cc3)n(Cc3ccc(Cl)cc3)c2=O)O1` [Compound I-2333]: the IC50 is 3 nM.
On the same count and under the same terms, then `CCn1c(=O)[nH]/c(=N\c2ccc(Oc3cccc(C#N)n3)c(OC)c2)n(Cc2ccc(Cl)cc2)c1=O` [Compound I-2387], with 2 nM.
Consider `C=Cc1ccc(Cn2c(=O)n(C[C@H](C)C(=O)OC)c(=O)[nH]/c2=N\c2ccc(OC(C)C)c(C)c2)cc1` [Compound I-0892, (S)-1-(4-vinylbenzyl)-6-(3-mehyl-4-isopropoxyphenylimino)-3-(2-methoxycarbonylpropyl)-1,3,5-triazinane-2,4-dion], for which the IC50 was determined as 18 nM.
Still for that read-out and setting: then `Cc1ccc(Cn2c(=O)n([C@H](C)CC(=O)O)c(=O)[nH]/c2=N\c2ccc(OC(C)C)c(Cl)c2)cc1` [Compound I-0878], with 22 nM; and `Cc1ccc(Cn2c(=O)n(C[C@H](C)C(=O)O)c(=O)[nH]/c2=N\c2ccc(CC3CC3)c(Cl)c2)cc1` [Compound I-1513], with 10 nM; and `CC(CO)(CO)Cn1c(=O)[nH]/c(=N\c2ccc(Oc3cccc(F)n3)cc2)n(Cc2ccc(F)cc2)c1=O` [Compound I-2526], with 8 nM.
Take `Cc1nsc(Oc2ccc(/N=c3\[nH]c(=O)n(C[C@H](O)CO)c(=O)n3Cc3ccc(F)cc3)cc2F)n1` [Compound I-2707]: the IC50 was found to be 7 nM.
For `COC(=O)[C@@H](C)Cn1c(=O)[nH]/c(=N\c2ccc(-c3noc(C)n3)cc2)n(Cc2ccc(Cl)cc2)c1=O` [Compound I-1529], the IC50 stood at 26 nM.
Regarding `Cn1cc(Oc2ccc(/N=c3\[nH]c(=O)n(CCC(=O)O)c(=O)n3Cc3ccc(Cl)cc3)cc2)ccc1=O` [Compound I-1512], the IC50 was determined as 13 nM.
For the molecule `Cc1ccc(Cn2c(=O)n(C)c(=O)[nH]/c2=N\c2ccc(Oc3cncc(C(=O)O)n3)cc2)cc1` [Compound I-2475], the IC50 came to 12 nM.
Take `CCn1c(=O)[nH]/c(=N\c2ccc(Oc3nccc(C(=O)O)n3)cc2)n(Cc2ccc(Cl)cc2)c1=O` [Compound I-2319]: the concentration for half-maximal inhibition (IC50) was 17 nM.
For `COC(=O)[C@@H](C)Cn1c(=O)[nH]/c(=N\c2ccc(OCC3CC3)cc2)n(Cc2ccc(C)cc2)c1=O` [Compound I-0834], the concentration for half-maximal inhibition (IC50) worked out at 18 nM.

In general, IC50 refers to the concentration at which inhibition is half-maximal.

The values are drawn from patent US9718790B2, “Triazine derivative and pharmaceutical composition having an analgesic activity comprising the same” (SHIONOGI & CO., LTD., priority 2010, dated 2017).
